Experiment [1] has as its target Aurora kinase B (Homo sapiens, UniProt Q96GD4).
Experiment [2] deals with Tyrosine-protein kinase Fgr (Homo sapiens, UniProt P09769).
Experiment [3] has as its target Tyrosine-protein kinase ABL1 (Homo sapiens, UniProt P00519).
The target of experiment [4] is Tyrosine-protein kinase CSK (Homo sapiens, UniProt P41240).
The target in experiment [5] is Proto-oncogene tyrosine-protein kinase receptor Ret (Homo sapiens, UniProt P07949, M918T).
Experiment [6] addresses Angiopoietin-1 receptor (Homo sapiens, UniProt Q02763).
Experiment [7] concerns the target T1, Testis-specific serine/threonine-protein kinase 1 (Homo sapiens, UniProt Q9BXA7).
T1 sequence (Q9BXA7 whole entry): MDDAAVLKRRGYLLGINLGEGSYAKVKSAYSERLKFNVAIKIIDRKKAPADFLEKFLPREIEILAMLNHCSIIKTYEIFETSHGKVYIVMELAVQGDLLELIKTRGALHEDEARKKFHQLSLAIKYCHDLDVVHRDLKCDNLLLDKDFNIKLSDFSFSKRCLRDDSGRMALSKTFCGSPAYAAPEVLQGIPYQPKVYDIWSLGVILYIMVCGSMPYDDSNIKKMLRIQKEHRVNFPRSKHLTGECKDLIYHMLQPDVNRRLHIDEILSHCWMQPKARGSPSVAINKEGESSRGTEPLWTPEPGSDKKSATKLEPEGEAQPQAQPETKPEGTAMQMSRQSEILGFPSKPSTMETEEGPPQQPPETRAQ

In experiment [8] the target is T2, Myosin light chain kinase family member 4 (Homo sapiens, UniProt Q86YV6).
T2 sequence (Q86YV6 whole entry): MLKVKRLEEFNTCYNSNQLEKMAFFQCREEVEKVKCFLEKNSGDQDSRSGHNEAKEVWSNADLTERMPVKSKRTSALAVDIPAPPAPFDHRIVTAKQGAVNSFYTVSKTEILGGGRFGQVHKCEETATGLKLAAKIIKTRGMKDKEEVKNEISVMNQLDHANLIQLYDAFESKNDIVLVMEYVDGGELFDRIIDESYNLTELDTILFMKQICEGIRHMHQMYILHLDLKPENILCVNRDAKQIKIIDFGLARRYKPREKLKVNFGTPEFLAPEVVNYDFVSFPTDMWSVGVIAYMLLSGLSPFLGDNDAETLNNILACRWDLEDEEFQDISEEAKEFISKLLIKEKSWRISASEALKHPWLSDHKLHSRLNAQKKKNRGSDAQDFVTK

Experiment [9] deals with Activin receptor type-2A (Homo sapiens, UniProt P27037).
Sequence of Activin receptor type-2A (P27037 whole entry): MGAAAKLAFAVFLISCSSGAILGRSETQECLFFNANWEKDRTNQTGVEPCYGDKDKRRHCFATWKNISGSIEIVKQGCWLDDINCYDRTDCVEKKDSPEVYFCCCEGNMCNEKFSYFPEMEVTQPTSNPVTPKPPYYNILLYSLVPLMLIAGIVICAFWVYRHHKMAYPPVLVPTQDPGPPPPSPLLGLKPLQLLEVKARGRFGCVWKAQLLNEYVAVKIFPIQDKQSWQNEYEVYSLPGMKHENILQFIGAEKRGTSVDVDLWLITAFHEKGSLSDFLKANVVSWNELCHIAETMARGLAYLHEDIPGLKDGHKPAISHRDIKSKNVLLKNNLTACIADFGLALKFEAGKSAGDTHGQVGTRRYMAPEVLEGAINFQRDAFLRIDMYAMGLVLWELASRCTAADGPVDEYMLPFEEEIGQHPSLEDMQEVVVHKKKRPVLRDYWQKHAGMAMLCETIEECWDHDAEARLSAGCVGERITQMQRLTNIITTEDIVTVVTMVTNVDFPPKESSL
In experiment [10] the target is Dual specificity mitogen-activated protein kinase kinase 1 (Homo sapiens, UniProt Q02750).
The target of experiment [11] is T3, Serine/threonine-protein kinase tousled-like 1 (Homo sapiens, UniProt Q9UKI8).
T3 sequence (Q9UKI8 whole entry): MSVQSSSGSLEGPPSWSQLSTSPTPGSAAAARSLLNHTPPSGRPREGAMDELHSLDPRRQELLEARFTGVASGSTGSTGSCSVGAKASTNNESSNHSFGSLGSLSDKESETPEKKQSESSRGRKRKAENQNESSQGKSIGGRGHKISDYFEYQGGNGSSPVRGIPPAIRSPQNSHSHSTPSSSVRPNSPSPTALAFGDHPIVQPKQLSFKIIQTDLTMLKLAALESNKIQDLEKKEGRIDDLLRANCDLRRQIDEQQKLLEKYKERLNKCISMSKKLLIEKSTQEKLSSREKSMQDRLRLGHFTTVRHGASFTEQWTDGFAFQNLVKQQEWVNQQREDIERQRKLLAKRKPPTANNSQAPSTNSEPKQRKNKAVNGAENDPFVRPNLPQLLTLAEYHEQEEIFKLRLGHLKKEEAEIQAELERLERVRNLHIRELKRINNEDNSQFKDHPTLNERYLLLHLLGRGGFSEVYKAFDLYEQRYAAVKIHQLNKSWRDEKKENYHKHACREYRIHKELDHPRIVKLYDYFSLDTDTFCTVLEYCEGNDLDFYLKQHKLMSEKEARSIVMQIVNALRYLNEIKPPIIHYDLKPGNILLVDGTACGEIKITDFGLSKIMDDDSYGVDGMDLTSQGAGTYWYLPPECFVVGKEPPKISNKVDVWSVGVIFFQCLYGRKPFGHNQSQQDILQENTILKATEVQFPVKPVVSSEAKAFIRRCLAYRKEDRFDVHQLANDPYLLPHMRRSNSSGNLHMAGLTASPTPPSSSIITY

In experiment [12] the target is Mitogen-activated protein kinase 11 (Homo sapiens, UniProt Q15759).
Sequence of Mitogen-activated protein kinase 11 (Q15759 whole entry): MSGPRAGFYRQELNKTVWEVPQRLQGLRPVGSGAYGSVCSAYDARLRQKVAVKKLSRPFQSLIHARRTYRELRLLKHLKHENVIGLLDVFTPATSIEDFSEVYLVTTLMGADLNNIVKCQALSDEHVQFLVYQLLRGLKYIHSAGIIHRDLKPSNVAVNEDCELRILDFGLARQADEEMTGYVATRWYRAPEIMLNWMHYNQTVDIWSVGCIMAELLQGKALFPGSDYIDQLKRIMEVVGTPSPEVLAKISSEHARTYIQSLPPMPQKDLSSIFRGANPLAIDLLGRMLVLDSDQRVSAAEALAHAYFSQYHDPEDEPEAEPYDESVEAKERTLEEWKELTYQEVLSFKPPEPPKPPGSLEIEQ
Experiment [13] concerns the target Ribosomal protein S6 kinase alpha-3 (Homo sapiens, UniProt P51812).
In experiment [14] the target is Mitogen-activated protein kinase 6 (Homo sapiens, UniProt Q16659).
Sequence of Mitogen-activated protein kinase 6 (Q16659 whole entry): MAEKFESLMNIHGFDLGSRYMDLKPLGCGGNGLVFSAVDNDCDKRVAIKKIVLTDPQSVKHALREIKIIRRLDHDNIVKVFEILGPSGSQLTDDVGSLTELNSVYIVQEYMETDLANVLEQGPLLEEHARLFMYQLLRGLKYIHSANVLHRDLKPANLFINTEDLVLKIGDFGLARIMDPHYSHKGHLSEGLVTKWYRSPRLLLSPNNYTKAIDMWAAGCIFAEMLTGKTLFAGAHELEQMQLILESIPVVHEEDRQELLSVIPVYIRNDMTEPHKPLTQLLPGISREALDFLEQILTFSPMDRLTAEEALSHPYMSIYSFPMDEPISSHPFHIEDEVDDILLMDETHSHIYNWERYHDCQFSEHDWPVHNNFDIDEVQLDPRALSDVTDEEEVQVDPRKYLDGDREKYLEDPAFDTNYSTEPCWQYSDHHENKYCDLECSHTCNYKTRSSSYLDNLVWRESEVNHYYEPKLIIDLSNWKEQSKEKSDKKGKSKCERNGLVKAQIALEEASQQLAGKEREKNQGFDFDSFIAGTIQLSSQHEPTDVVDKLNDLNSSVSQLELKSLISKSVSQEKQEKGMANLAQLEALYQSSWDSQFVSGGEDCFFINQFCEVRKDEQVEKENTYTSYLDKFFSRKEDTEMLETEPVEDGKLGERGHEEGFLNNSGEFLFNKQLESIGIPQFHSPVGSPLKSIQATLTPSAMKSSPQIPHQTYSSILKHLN
Experiment [15] has as its target T4, Serine/threonine-protein kinase DCLK2 (Homo sapiens, UniProt Q8N568).
T4 sequence (Q8N568 whole entry): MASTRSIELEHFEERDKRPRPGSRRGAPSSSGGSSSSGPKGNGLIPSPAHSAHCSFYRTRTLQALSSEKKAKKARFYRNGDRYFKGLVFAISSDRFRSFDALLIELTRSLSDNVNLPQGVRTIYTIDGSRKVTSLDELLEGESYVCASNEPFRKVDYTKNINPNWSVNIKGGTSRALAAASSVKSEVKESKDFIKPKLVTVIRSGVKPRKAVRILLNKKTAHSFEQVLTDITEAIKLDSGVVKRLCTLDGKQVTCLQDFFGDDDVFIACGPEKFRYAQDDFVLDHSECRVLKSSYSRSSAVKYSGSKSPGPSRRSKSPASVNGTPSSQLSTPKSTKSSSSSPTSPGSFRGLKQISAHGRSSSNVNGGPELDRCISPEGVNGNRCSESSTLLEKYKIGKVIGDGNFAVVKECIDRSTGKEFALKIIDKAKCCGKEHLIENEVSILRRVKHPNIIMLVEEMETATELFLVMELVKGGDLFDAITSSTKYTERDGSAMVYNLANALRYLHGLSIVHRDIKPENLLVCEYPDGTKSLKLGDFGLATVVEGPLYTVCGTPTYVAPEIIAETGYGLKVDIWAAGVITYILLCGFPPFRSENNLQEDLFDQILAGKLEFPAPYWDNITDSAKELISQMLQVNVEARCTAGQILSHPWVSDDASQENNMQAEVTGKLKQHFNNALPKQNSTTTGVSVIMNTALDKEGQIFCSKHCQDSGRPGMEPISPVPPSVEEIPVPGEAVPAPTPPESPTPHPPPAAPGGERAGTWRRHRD

Sequence of Tyrosine-protein kinase ABL1 (P00519 whole entry): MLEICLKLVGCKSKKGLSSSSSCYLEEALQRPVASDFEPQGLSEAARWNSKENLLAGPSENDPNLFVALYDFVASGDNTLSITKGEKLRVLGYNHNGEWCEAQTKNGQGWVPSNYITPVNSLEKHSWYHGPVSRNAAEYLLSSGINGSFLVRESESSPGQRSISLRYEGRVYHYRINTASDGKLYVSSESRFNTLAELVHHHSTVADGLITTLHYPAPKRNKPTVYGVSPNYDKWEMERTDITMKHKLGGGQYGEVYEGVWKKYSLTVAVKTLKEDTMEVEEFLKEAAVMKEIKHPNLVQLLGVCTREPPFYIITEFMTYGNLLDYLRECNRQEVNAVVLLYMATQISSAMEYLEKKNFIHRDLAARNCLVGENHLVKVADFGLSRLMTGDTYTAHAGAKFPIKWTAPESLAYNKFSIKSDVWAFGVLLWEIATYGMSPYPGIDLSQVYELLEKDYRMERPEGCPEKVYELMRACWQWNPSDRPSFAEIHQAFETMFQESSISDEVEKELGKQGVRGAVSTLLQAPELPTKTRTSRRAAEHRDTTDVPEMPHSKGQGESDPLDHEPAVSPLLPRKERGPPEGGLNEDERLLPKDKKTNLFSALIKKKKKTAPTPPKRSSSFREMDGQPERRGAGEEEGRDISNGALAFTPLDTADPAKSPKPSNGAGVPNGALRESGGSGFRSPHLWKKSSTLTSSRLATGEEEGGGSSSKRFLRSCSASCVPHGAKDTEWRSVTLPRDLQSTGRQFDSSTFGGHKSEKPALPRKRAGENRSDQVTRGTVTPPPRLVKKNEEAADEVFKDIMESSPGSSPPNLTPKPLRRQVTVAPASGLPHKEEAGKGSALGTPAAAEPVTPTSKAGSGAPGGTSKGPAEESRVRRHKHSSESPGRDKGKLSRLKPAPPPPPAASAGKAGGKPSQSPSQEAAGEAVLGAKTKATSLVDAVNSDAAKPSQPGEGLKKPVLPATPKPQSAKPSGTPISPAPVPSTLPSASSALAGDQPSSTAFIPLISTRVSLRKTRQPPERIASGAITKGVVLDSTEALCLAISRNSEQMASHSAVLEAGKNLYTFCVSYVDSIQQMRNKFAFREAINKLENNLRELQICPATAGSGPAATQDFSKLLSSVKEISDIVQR
Sequence of Ribosomal protein S6 kinase alpha-3 (P51812 whole entry): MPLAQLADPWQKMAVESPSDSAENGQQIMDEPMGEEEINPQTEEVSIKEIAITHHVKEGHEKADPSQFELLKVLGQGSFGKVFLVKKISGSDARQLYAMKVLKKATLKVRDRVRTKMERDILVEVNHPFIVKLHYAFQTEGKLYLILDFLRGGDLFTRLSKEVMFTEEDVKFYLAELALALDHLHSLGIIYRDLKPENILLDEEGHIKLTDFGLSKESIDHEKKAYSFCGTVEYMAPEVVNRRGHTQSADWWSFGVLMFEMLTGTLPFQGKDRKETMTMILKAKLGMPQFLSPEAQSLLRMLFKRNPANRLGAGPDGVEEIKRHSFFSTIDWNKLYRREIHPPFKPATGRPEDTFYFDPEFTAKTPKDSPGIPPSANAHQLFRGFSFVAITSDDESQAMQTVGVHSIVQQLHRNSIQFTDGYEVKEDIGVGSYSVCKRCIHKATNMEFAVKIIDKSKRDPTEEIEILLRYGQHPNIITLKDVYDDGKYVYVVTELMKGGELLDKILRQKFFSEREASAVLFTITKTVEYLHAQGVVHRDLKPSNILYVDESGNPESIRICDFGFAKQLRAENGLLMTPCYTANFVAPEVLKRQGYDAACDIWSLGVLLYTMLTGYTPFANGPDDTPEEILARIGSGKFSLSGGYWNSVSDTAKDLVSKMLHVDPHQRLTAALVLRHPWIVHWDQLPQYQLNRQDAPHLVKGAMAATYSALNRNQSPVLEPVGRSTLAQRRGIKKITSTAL
Sequence of Tyrosine-protein kinase Fgr (P09769 whole entry): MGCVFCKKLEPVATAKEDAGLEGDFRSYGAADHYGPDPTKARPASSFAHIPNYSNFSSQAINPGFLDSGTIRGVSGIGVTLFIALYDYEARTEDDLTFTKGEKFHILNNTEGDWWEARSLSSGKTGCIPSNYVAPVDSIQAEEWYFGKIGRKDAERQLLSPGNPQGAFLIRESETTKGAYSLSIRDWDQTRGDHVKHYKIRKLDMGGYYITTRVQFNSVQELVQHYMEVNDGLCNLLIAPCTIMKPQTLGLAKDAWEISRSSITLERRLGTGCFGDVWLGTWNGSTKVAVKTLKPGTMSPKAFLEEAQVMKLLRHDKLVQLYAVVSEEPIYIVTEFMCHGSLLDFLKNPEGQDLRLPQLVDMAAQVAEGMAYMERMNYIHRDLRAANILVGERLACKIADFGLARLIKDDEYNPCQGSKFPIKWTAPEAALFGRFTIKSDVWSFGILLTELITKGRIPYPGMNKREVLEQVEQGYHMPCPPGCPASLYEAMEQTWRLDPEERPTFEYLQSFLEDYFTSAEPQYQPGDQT
Sequence of Tyrosine-protein kinase CSK (P41240 whole entry): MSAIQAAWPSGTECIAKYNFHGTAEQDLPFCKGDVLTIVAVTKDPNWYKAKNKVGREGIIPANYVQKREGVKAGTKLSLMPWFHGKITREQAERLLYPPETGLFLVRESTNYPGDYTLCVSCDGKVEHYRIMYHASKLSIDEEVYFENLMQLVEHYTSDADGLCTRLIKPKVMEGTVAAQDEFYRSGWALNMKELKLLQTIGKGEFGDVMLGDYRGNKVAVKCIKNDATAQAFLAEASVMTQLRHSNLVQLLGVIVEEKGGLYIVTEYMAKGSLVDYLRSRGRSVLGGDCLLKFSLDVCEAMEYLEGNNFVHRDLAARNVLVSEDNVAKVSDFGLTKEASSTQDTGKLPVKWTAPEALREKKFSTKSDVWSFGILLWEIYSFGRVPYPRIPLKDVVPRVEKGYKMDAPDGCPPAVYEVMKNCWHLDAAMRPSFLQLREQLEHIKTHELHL
Sequence of Aurora kinase B (Q96GD4 whole entry): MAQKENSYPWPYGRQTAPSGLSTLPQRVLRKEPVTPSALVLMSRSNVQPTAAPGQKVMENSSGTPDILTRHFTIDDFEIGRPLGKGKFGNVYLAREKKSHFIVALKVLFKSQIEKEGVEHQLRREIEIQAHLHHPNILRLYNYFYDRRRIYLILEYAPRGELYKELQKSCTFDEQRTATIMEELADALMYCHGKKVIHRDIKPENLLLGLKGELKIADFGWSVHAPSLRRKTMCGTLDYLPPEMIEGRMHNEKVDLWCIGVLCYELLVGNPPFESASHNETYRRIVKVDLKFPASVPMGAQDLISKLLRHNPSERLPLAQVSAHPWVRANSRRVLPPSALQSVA

As to `CCN1CCN(Cc2ccc(NC(=O)Nc3ccc(Oc4cc(NC)ncn4)cc3)cc2C(F)(F)F)CC1` [AST-487], in experiment [1], the Kd – broadly, the concentration at which binding is half-saturated – was over 10 µM.
As to `COCC(=O)NC/C=C/c1ccc2ncnc(Nc3ccc(Oc4ccc(C)nc4)c(C)c3)c2c1` [CP-724714], the Kd in [2], in [3], in experiment [4], in [5], in experiment [6] and in experiment [7] was over 10 µM each time. Also, the dissociation constant (Kd) in experiment [8], in [9], in [10], in experiment [11], in experiment [1] and in [12] was over 10 µM each time. The Kd in experiment [13], in experiment [14] and in experiment [15] was over 10 µM throughout.
`Nc1nc(Nc2ccc(S(N)(=O)=O)cc2)nn1C(=O)c1c(F)cccc1F` [JNJ-7706621]: the dissociation constant (Kd) was over 10 µM in experiment [4]; over 10 µM in experiment [7]; over 10 µM in experiment [8]; over 10 µM in [12]; 4.5 µM in experiment [15].
For the compound `CCOc1cc2ncc(C#N)c(Nc3ccc(F)c(Cl)c3)c2cc1NC(=O)/C=C/CN(C)C` [PELITINIB], the dissociation constant (Kd) is 0.95 µM in experiment [2]; over 10 µM in [5]; over 10 µM in experiment [6]; over 10 µM in experiment [7]; over 10 µM in [8]; over 10 µM in experiment [9]. The Kd in experiment [11], in experiment [1], in experiment [12], in [13], in experiment [14] and in experiment [15] was over 10 µM each time.
In the case of `Oc1ccc(-c2nc(-c3ccncc3)c(-c3ccc(F)cc3)[nH]2)cc1` [SB-202190], the dissociation constant (Kd) in experiment [2], in experiment [3], in experiment [4], in experiment [5], in experiment [6] and in experiment [7] was over 10 µM throughout. Moreover, the dissociation constant Kd in [8], in experiment [9], in [10], in experiment [11], in [1] and in [13] was over 10 µM in each case. Also, the equilibrium dissociation constant (Kd) in experiment [14] and in experiment [15] was over 10 µM each time.
As to `NC(=O)c1ccc(-c2nc(-c3ccc4c(c3)OCO4)c(-c3ccccn3)[nH]2)cc1` [SB-431542], the Kd in [2], in experiment [3], in experiment [4], in experiment [5], in experiment [6] and in experiment [7] was over 10 µM throughout. The Kd in experiment [8], in experiment [9], in [10], in experiment [11], in [1] and in [12] was over 10 µM throughout. In addition, the Kd in experiment [13], in experiment [14] and in [15] was over 10 µM each time.

The values are drawn from ChEMBL document CHEMBL1150977, “A quantitative analysis of kinase inhibitor selectivity” (Nat Biotechnol, 2008).
